Assay results published in patent publication US20210395306A1, “POLYPEPTIDES FOR THE TREATMENT OF STRESS, IMMUNOREACTION AND STROKE SYNDROMES” (Neopep Pharma GmbH & Co. KG, priority 2018, published 2021).

System: Pancreas carcinoma cells
Test: Cancer cell invasion assay on humanized rats with implanted pancreas carcinoma cells
Format: in vivo
Conditions: pancreas carcinoma implant
Procedure: The cancer cell invasion assay was performed on humanized rats (Eyol, E. et al., Oncology Reports, 28: 2177-2187, 2012). Pancreas carcinoma cells were implanted. The successful implant was observed by luminescent imaging as well as by an increase in CXCR4 expression.
After a successful implant of carcinoma cells, the rats were treated with a peptide according to SEQ ID No. 1. The results after 1 week of therapy (1 w of therapy), after 2 weeks of therapy (2 w of therapy) and 2 weeks after end of therapy are depicted in the below table.

For LVRYTQKAPQVS (human) [SEQ ID No. 1], the “Tumor growth / remission” value (10 mg peptide, 1 w of therapy) was “No tumor growth”, the “Tumor growth / remission” value (20 mg peptide, 1 w of therapy) was “No tumor growth” and the “Tumor growth / remission” value (20 mg peptide, 2 w after end of therapy) was “Complete”. For the same sequence, the “Tumor growth / remission” value (20 mg peptide, 2 w of therapy) was “Complete”, the “Tumor growth / remission” value (70 mg peptide, 1 w of therapy) was “No tumor growth” and the “Tumor growth / remission” value (70 mg peptide, 2 w after end of therapy) was “Complete”. The “Tumor growth / remission” value (70 mg peptide, 2 w of therapy) was “Remission”.
